From patent US8653049B2, “Normuramyl glycopeptide compounds” (priority 2008, dated 2014)
“And” between values parts separate entries of the source, which are not always exact repeats. Equal values may be shown once.

Experiments:
[1] = rabbits, liposomal preparations s.c. 100 nmol/kg, 3 rabbits per group; passes if below 1.1° C.
Procedure, shortened: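 Pyrogenicity was tested in New Zealand albino rabbits (3 per group) given liposomal preparations at 100 nmol/kg s.c., with temperature taken at 1, 2, 3, 4, 6 and 24 h. Controls were empty liposomes, liposomal and free MDP (50.7 nmol/kg) and B30-norAbu-MDP. A pass required summed ΔTmax below 1.1 °C.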

[2] = tested on: C. albicans strain 2091; assay: Stimulation of innate immunity to Candida albicans infection, survival; details: s.c. 24 h after i.v. infection, vs PBS control, FIG. 20
[3] = tested on: Salmonella enteritidis; assay: Stimulation of innate immunity against Salmonella Enteritidis
[4] = tested on: Trichophyton mentagrophytes TM 179; assay: Adjuvant activity for hsp60 DNA vaccine against ringworm; type: in vivo, guinea pigs; design: key: semi-quantitative 0 to +++ method (where U=ulceration) for evaluation of dermal reactions, i.e. pathological lesions; semi-quantitative 0 to +++ method (where U=ulceration) for evaluation of dermal reactions, i.e. pathological lesions; semi-quantitative 0 to +++ method (where U=ulceration) for evaluation of dermal reactions, i.e. pathological lesions; semi-quantitative 0 to +++ method (where U=ulceration) for evaluation of dermal reactions, i.e. pathological lesions; U=ulceration; details: per animal
[5] = tested on: S. typhimurium; assay: Stimulation of innate immunity against Salmonella Typhimurium; type: in vivo, BALB/c mice; details: liposomal preparations
From the text: Test compounds at doses of 5, 10, 25, 50, 100 and 200 nmol per mouse were applied in., s.c., i.v., or p.o. 3 and 1 days before experimental infection (10 animals per group). Various organs (intestines, liver, spleen, lungs) were examined for the presence of salmonellae on day 30 post infection. Results were expressed as numbers of colony forming units (CFU) of S. typhimurium per 1 gram of tissue. Statistically significant differences in numbers of CFU between the individual experimental groups were calculated by one-way analysis of variance.

[6] = liposomal, 20 nmol per dose p.o. 72 and 24 h before infection (LD50), 5 mice
[7] = group 1: 200 μg adjuvant at −48 h + 20 μg DNA
[8] = group 2: 200 μg adjuvant at −24 h + 20 μg DNA
[9] = group 3: 200 μg adjuvant at 0 h + 20 μg DNA
[10] = group 4: 200 μg adjuvant at +24 h + 20 μg DNA

## CCCCCCCCCCCCCCC(CCCCCCCCCCCCCC)C(=O)OC[C@H]1OC(O)[C@H](NC(C)=O)[C@@H](OCC(=O)N[C@@H](CC)C(=O)N[C@H](CCC(=O)O)C(N)=O)[C@@H]1O (stereo partly shown) [B30-norAbu-MDP]
[1]
  +ΔTmax (Sum of ΔTmax): 0.5 °C
[2]; listed as free (non-liposomal) B30-norAbuMDP
  survival time and survival rate in C. albicans infection: lesser effect
[2]; listed as free B30-Nor-abuMDP
  survival time and survival rate in C. albicans infection: No effect
[3]; 0 or 1 case of death by day 12
  protective effect / survival rate in S. Enteritidis infection: good protective effects
[3]; [6]
  Day 6 Intest.: clear/infected/dead: 5/0/0
  Day 6 Liver: clear/infected/dead: 4/1/0
  Day 6 Lungs: clear/infected/dead: 5/0/0
  Day 6 Spleen: clear/infected/dead: 4/1/0
  Day 12 Intest.: clear/infected/dead: 4/0/1
  Day 12 Liver: clear/infected/dead: 4/0/1
  Day 12 Lungs: clear/infected/dead: 4/0/1
  Day 12 Spleen: clear/infected/dead: 4/0/1
[4]; group 1: 200 μg adjuvant at −48 h + 20 μg DNA electroporation prime and boost
  Skin reaction Day 12: + and ++
[4]; [7]
  Skin reaction Day 21: +++ (2×) and ++ (2×)
  Skin reaction Day 28: +
[4]; group 2: 200 μg adjuvant at −24 h + 20 μg DNA electroporation prime and boost
  Skin reaction Day 12: +++ (2×) and ++
[4]; [8]
  Skin reaction Day 21: ++ (2×) and + (2×)
  Skin reaction Day 28: + (2×) and 0
[4]; group 3: 200 μg adjuvant at 0 h + 20 μg DNA electroporation prime and boost
  Skin reaction Day 12: +++ and + (2×)
[4]; [9]
  Skin reaction Day 21: +
  Skin reaction Day 28: 0
[4]; group 4: 200 μg adjuvant at +24 h + 20 μg DNA electroporation prime and boost
  Skin reaction Day 12: +++ and + (2×)
[4]; [10]
  Skin reaction Day 21: ++
  Skin reaction Day 28: + (2×) and 0 (2×)
[5]
  induction of immune responses in intestines: able to induce immune responses in intestines
